# Laboratory results: patent publication US11377440B2, “Modulators of stimulator of interferon genes (STING)” (GlaxoSmithKline Intellectual Property Development Limited, priority 2017, dated 2022)
# Tested on: T1, STING
# T1 construct: endogenous in cells; host or cells: THP-1
# Assay: Functional assay IV (THP-1 antagonist assay), IFNβ secretion after Bacmam virus
# Format: cell-based, human
# Settings: THP-1 cells, Bacmam virus MOI of 40 pfu/cell; upper limit of the assay 9.1
structure (smiles),measurement,value
CCn1nc(C)cc1C(=O)/N=c1\n(C)c2cc(C(N)=O)ccc2n1CCCCCn1/c(=N/C(=O)c2cc(C)nn2CC)n(C)c2cc(C(N)=O)ccc21 [Example 24],THP-1 antagonist assay (pIC50),4.6
